We go through two molecules from paper doi:10.1101/2021.11.20.466133v3 (biorxiv, 2022).

Assay [1] addresses T1, MsDisA (Mycolicibacterium smegmatis, UniProt A0R564). Particulars: substrate inhibition by ATP; pH 7.5; 37 °C; 5 mM MgCl2.
Assay [2] concerns the target T1, MsDisA. The experiment in a line: biochemical.
Assay [3] has as its target MsPDE (Mycolicibacterium smegmatis, UniProt A0QVM9). The experiment in a line: HPLC AMP formation, substrate inhibition model. The format is biochemical. Particulars: substrate inhibition by c-di-AMP; pH 7.5; 5 mM MgCl2.

Molecules are shown by their SMILES.

T1 sequence (A0R564 whole entry): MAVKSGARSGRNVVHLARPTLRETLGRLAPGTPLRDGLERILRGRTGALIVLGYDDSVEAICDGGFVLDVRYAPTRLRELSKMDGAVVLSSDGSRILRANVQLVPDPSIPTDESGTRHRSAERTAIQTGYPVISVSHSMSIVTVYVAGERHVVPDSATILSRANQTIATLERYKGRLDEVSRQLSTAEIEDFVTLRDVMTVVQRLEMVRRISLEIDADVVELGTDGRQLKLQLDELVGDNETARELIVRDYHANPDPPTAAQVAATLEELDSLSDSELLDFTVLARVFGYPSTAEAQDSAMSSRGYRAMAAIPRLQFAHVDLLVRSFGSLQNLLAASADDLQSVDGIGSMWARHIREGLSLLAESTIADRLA
Sequence of MsPDE (A0QVM9 1-340): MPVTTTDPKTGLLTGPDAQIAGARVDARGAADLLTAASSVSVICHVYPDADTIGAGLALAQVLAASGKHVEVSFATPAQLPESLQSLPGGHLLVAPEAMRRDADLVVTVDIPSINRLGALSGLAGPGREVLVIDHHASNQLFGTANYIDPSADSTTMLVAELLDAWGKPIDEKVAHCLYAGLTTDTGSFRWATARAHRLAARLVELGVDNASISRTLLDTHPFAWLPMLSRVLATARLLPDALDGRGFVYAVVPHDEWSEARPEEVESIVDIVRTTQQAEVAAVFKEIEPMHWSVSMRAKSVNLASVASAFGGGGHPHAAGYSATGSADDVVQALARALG

By Kd is commonly meant the constant that tells how readily two partners part at equilibrium. Low values mean a tighter complex, high ones a looser complex. On to `Nc1ncnc2c1ncn2[C@@H]1O[C@H](COP(=O)(O)OP(=O)(O)OP(=O)(O)O)[C@@H](O)[C@H]1O` [ATP], for which the Ki in assay [1] was found to be 1430 µM. The molecule further yielded a Kd in assay [2] of 2.4 µM.

Turning to `Nc1ncnc2c1ncn2[C@@H]1O[C@@H]2COP(=O)(O)O[C@H]3[C@@H](O)[C@H](n4cnc5c(N)ncnc54)O[C@@H]3COP(=O)(O)O[C@H]2[C@H]1O` [c-di-AMP], the Ki in assay [3] amounted to 1120 µM.
